Here are results for 15 molecules from PubChem BioAssay (NCI).

The structures appear in SMILES notation. “And” between values parts separate entries of the source, which are not always exact repeats. Equal values may be shown once.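 Compound exposure: 48 hours, 5 concentrations, 96-well plates. GI50 = concentration required for 50% inhibition of growth. TGI marks complete inhibition of growth.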 Some results are limits rather than exact numbers.

What all share (experiment): growth of human tumour cells (NCI), 48 h
The subject of experiment [1] is IGROV1 ovarian.
In experiment [2] the test system is HL-60(TB) leukemia.
For experiment [3], the system named is HT29 colon.
The test system of experiment [4] is MCF7 breast.
For experiment [5], the system named is UACC-62 melanoma.
Experiment [6] deals with SW-620 colon.
Experiment [7] deals with NCI-H460 lung.
Experiment [8] relates to OVCAR-4 ovarian.
Experiment [9] concerns NCI/ADR-RES ovarian.

Consider `CC1[C@@]2(CCC(C)(C)O2)O[C@@H]2C=C3C4CCC5Cc6nc7c(nc6C[C@@]5(C)C4C[C@H](O)[C@@]3(C)[C@]12O)CC1CCC2C3=C[C@H]4O[C@@]5(O[C@@](C)(CO)C[C@@H]5O)C(C)[C@@]4(O)[C@]3(C)[C@@H](O)CC2[C@]1(C)C7` (stereo not given in full), for which the GI50 in [1] is 0.00831 µM; in experiment [2], below 0.000365 µM; in [3] it was 0.00179 µM; in experiment [5], 0.00387 µM; in [6], 0.00938 µM; in experiment [7], 0.00135 µM. For the same molecule, the GI50 in experiment [8] is 0.0921 µM. Also, the TGI in [1] was 0.59 µM; in experiment [2], 0.331 µM and 0.0465 µM; in experiment [4] it was 0.524 µM; in experiment [6], 0.499 µM and 0.0508 µM; in [7] it was 0.365 µM and 0.0392 µM; in experiment [8], 0.81 µM. The molecule further yielded a TGI in experiment [9] of 2.05 µM.
On to `O=C(/C=C/c1ccccc1)c1ccc(Cl)cc1Cl`, for which the TGI in experiment [1] came to 40.5 µM; in experiment [2], 36.2 µM; in experiment [3], 32.9 µM; in experiment [5], 30 µM; in [6], 17.9 µM; in experiment [7] it was 33.4 µM. Further, in [8], the TGI was 46.1 µM.
Consider `Cc1cc(N(CCC#N)CCC#N)ccc1/C=C(\NC(=O)/C=C/c1ccccc1)C(=O)Nc1ccccc1Cl`, for which the TGI in experiment [1], in experiment [2], in experiment [3], in experiment [5], in experiment [6] and in experiment [7] was above 100 µM in each case. The molecule also yielded a TGI in experiment [8] above 100 µM.
As to `[O]=[Sn]([CH]1CCCCC1)[CH]1CCCCC1`, the GI50 is 0.274 µM in experiment [1]; 0.248 µM in [2]; 0.298 µM in experiment [3]; 0.0849 µM in experiment [4]; 0.208 µM in experiment [5]; 0.0934 µM in [6]. Moreover, the results for the GI50 in [7], in experiment [8] and in experiment [9] were 0.389 µM, 0.342 µM and 0.357 µM, respectively. In addition, the TGI in experiment [1] was 0.915 µM; in experiment [2], 1.55 µM; in experiment [3] it was 0.866 µM; in experiment [5], 0.743 µM; in experiment [6] it was 0.238 µM; in [7], 1.43 µM. Moreover, the figures for the TGI in [8] and in experiment [9] were 1.46 µM and 1.63 µM, respectively.
On to `CC1NOC(=O)C1N=Nc1cccc(Cl)c1` (stereo not given), for which the TGI in experiment [1] is above 100 µM; in [2], 56.8 µM; in experiment [3], 77 µM; in experiment [5], above 100 µM; in [6], 23.4 µM; in experiment [7], above 100 µM. Besides, the TGI in experiment [8] is above 100 µM.
On to `C[N+](C)(C)CC1CCC(C[N+](C)(C)C)C1=NO` (stereo not given), for which the TGI in experiment [1], in [2], in [3], in experiment [5], in [6] and in experiment [8] was above 100 µM in each case.
As for `O=C(N/C(=C\c1ccc([N+](=O)[O-])cc1)c1nc2ccccc2s1)c1ccccc1`, the TGI in [1] is above 100 µM; in [3] it was above 100 µM; in experiment [5], 48.3 µM; in experiment [6], 69 µM; in [8], 81.3 µM.
Regarding `COC(=O)C1=NC(=S)NC(c2ccccc2)C1c1nc2ccccc2o1` (stereo not given), the TGI in experiment [1], in [2], in experiment [3], in [5], in [6] and in experiment [7] was above 50 µM in each case. For the same molecule, in [8], the TGI is above 50 µM.
Turning to `O=C1C(Cl)=C(Nc2ccc(S(=O)(=O)c3ccc(NC4=C(Cl)C(=O)c5ccccc5C4=O)cc3)cc2)C(=O)c2ccccc21`, the GI50 in experiment [2] is 3.24 µM; in experiment [3], 2 µM; in experiment [5], 1.66 µM; in experiment [7] it was 2.36 µM; in [9] it was 3.68 µM. Also, the TGI came out at 8.62 µM in experiment [2]; 5.02 µM in experiment [3]; 3.18 µM in [5]; 6.53 µM in experiment [7]; 35.2 µM in experiment [9].
With `FC(F)(F)c1ccccc1C1SCc2nc3ccccc3n21` (stereo not given), the TGI was above 100 µM in [1]; 47 µM in experiment [2]; above 100 µM in [3]; above 100 µM in experiment [5]; above 100 µM in experiment [6].
As for `Cc1ccc(NCCNCC(C)(C)O)c2c(=O)c3ccc(Cl)cc3sc12`, the GI50 was 1.35 µM in [1]; 1.45 µM in experiment [2]; 1.61 µM in experiment [3]; 1.44 µM in [4]; 1.81 µM in experiment [5]; 1.5 µM in experiment [6]. The results for the GI50 in experiment [7] and in experiment [9] were 1.22 µM and 1.52 µM, respectively. For the same molecule, the TGI was 2.96 µM in experiment [1]; 3.17 µM in [2]; 3.1 µM in experiment [3]; 2.97 µM in experiment [4]; 3.42 µM in [5]; 2.96 µM in experiment [6]. In addition, the TGI in [7] came to 2.6 µM; in experiment [9], 3.02 µM.
Turning to `CC(=O)CCC1(c2ccccc2)OC(=O)C(C#N)=C1c1ccccc1` (stereo not given), the TGI in experiment [1], in experiment [3], in experiment [5], in [6], in experiment [7] and in [8] was above 100 µM in each case.
As to `CCOc1ccc(NC(=O)CC2SC(=Nc3ccc(C)cc3)NC2=O)cc1` (stereo not given), the TGI in [1], in experiment [3], in experiment [5], in [6], in experiment [7] and in experiment [8] was above 100 µM throughout.
For `Cc1cc(NCCCCCCCNc2cc(C)nc3cc(N)ccc23)c2ccc(N)cc2n1`, the TGI in [2] is 23.9 µM; in experiment [3] it was above 100 µM; in experiment [5] it was above 100 µM; in [7], above 100 µM; in [8] it was above 100 µM.
On to `Cc1c(Cl)ccc2c1NC(=O)C2(O)CC(=O)c1ccc(Cl)cc1` (stereo not given), for which the TGI was above 100 µM in [1]; above 80.6 µM in [2]; above 66.1 µM in experiment [3]; above 71.5 µM in [5]; above 53.1 µM in experiment [6]; above 63.3 µM in [7]. Further, the TGI in experiment [8] was above 100 µM.
